Measured values taken from PubChem BioAssay AID1963827 (Molecular Pharmacology Branch, DTP, NCI, 2024).

System: 994946-033-R-J1-PDC complex spheroid viability
Experiment: Anticancer human tumor 994946-033-R-J1-PDC patient-derived melanoma cell line growth inhibition [POLQ]
Conditions: for IC50: curve of first compound; for viability, T/C: stronger effect = lower value
How it was run: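 Complex spheroid viability model combining PDC tumour cells with endothelial (HUVEC) and MSC stromal cells. Novobiocin, ART-558 or RP6685 were tested singly and in combination with standard and investigational anticancer drugs. Each was titrated in half-log steps from near clinical Cmax, or from 10 microM where Cmax was unknown.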
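Further: spheroids exposed to drugs for 7 days.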
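Wherever viability, T/C is given: 100% = DMSO vehicle treated spheroids.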

## CC(=O)O[C@H]1C(=O)[C@@]2(C)[C@H]([C@H](OC(=O)c3ccccc3)[C@]3(O)C[C@H](OC(=O)[C@H](O)[C@@H](NC(=O)c4ccccc4)c4ccccc4)C(C)=C1C3(C)C)[C@]1(OC(C)=O)CO[C@@H]1C[C@@H]2O + Nc1ccc(C#CCN(C(=O)Cc2ncc(C(F)(F)F)cc2C(F)(F)F)c2ccc(F)cc2)nn1
Second compound 0.0316 µM
  IC50: < 0.00949 µM
Second compound 0.1 µM
  IC50: < 0.00949 µM
Second compound 0.316 µM
  IC50: < 0.00949 µM
Second compound 1 µM
  IC50: < 0.00949 µM
Second compound 3.16 µM
  IC50: < 0.00949 µM
Second compound 10 µM
  IC50: < 0.00949 µM
Second compound 0.0316 µM, first compound 0.00949 µM
  viability, T/C: 20.4%
Second compound 0.0316 µM, first compound 0.03 µM
  viability, T/C: 18.5%
Second compound 0.0316 µM, first compound 0.0949 µM
  viability, T/C: 14.8%
Second compound 0.0316 µM, first compound 0.3 µM
  viability, T/C: 22%
Second compound 0.0316 µM, first compound 0.949 µM
  viability, T/C: 13.5%
Second compound 0.0316 µM, first compound 3 µM
  viability, T/C: 12%
Second compound 0.1 µM, first compound 0.00949 µM
  viability, T/C: 25.9%
Second compound 0.1 µM, first compound 0.03 µM
  viability, T/C: 23.6%
Second compound 0.1 µM, first compound 0.0949 µM
  viability, T/C: 19.4%
Second compound 0.1 µM, first compound 0.3 µM
  viability, T/C: 15.9%
Second compound 0.1 µM, first compound 0.949 µM
  viability, T/C: 9.63%
Second compound 0.1 µM, first compound 3 µM
  viability, T/C: 13.3%
Second compound 0.316 µM, first compound 0.00949 µM
  viability, T/C: 22.3%
Second compound 0.316 µM, first compound 0.03 µM
  viability, T/C: 20.8%
Second compound 0.316 µM, first compound 0.0949 µM
  viability, T/C: 20.4%
Second compound 0.316 µM, first compound 0.3 µM
  viability, T/C: 15.9%
Second compound 0.316 µM, first compound 0.949 µM
  viability, T/C: 13.8%
Second compound 0.316 µM, first compound 3 µM
  viability, T/C: 13.9%
Second compound 1 µM, first compound 0.00949 µM
  viability, T/C: 29.7%
Second compound 1 µM, first compound 0.03 µM
  viability, T/C: 24.9%
Second compound 1 µM, first compound 0.0949 µM
  viability, T/C: 20%
Second compound 1 µM, first compound 0.3 µM
  viability, T/C: 20%
Second compound 1 µM, first compound 0.949 µM
  viability, T/C: 15.3%
Second compound 1 µM, first compound 3 µM
  viability, T/C: 13.2%
Second compound 3.16 µM, first compound 0.00949 µM
  viability, T/C: 29.2%
Second compound 3.16 µM, first compound 0.03 µM
  viability, T/C: 24.2%
Second compound 3.16 µM, first compound 0.0949 µM
  viability, T/C: 18.4%
Second compound 3.16 µM, first compound 0.3 µM
  viability, T/C: 15.3%
Second compound 3.16 µM, first compound 0.949 µM
  viability, T/C: 14.1%
Second compound 3.16 µM, first compound 3 µM
  viability, T/C: 12.1%
Second compound 10 µM, first compound 0.00949 µM
  viability, T/C: 24.8%
Second compound 10 µM, first compound 0.03 µM
  viability, T/C: 24%
Second compound 10 µM, first compound 0.0949 µM
  viability, T/C: 25%
Second compound 10 µM, first compound 0.3 µM
  viability, T/C: 18%
Second compound 10 µM, first compound 0.949 µM
  viability, T/C: 18.9%
Second compound 10 µM, first compound 3 µM
  viability, T/C: 12.2%

## CC[C@@]1(O)C(=O)OCc2c1cc1n(c2=O)Cc2cc3c(CN(C)C)c(O)ccc3nc2-1 + Nc1ccc(C#CCN(C(=O)Cc2ncc(C(F)(F)F)cc2C(F)(F)F)c2ccc(F)cc2)nn1
Second compound 0.0316 µM
  IC50: 0.0265 µM
Second compound 0.1 µM
  IC50: 0.0294 µM
Second compound 0.316 µM
  IC50: 0.0214 µM
Second compound 1 µM
  IC50: 0.0225 µM
Second compound 3.16 µM
  IC50: 0.0215 µM
Second compound 10 µM
  IC50: 0.0303 µM
Second compound 0.0316 µM, first compound 0.000316 µM
  viability, T/C: 95.3%
Second compound 0.0316 µM, first compound 0.001 µM
  viability, T/C: 94.5%
Second compound 0.0316 µM, first compound 0.00316 µM
  viability, T/C: 99.9%
Second compound 0.0316 µM, first compound 0.01 µM
  viability, T/C: 79%
Second compound 0.0316 µM, first compound 0.0316 µM
  viability, T/C: 45%
Second compound 0.0316 µM, first compound 0.1 µM
  viability, T/C: 9.6%
Second compound 0.1 µM, first compound 0.000316 µM
  viability, T/C: 91.7%
Second compound 0.1 µM, first compound 0.001 µM
  viability, T/C: 113%
Second compound 0.1 µM, first compound 0.00316 µM
  viability, T/C: 78.2%
Second compound 0.1 µM, first compound 0.01 µM
  viability, T/C: 98.9%
Second compound 0.1 µM, first compound 0.0316 µM
  viability, T/C: 46.9%
Second compound 0.1 µM, first compound 0.1 µM
  viability, T/C: 15.4%
Second compound 0.316 µM, first compound 0.000316 µM
  viability, T/C: 101%
Second compound 0.316 µM, first compound 0.001 µM
  viability, T/C: 109%
Second compound 0.316 µM, first compound 0.00316 µM
  viability, T/C: 89.9%
Second compound 0.316 µM, first compound 0.01 µM
  viability, T/C: 79.5%
Second compound 0.316 µM, first compound 0.0316 µM
  viability, T/C: 34.6%
Second compound 0.316 µM, first compound 0.1 µM
  viability, T/C: 17.1%
Second compound 1 µM, first compound 0.000316 µM
  viability, T/C: 130%
Second compound 1 µM, first compound 0.001 µM
  viability, T/C: 90.3%
Second compound 1 µM, first compound 0.00316 µM
  viability, T/C: 106%
Second compound 1 µM, first compound 0.01 µM
  viability, T/C: 87.8%
Second compound 1 µM, first compound 0.0316 µM
  viability, T/C: 33.7%
Second compound 1 µM, first compound 0.1 µM
  viability, T/C: 11.7%
Second compound 3.16 µM, first compound 0.000316 µM
  viability, T/C: 92%
Second compound 3.16 µM, first compound 0.001 µM
  viability, T/C: 119%
Second compound 3.16 µM, first compound 0.00316 µM
  viability, T/C: 96.8%
Second compound 3.16 µM, first compound 0.01 µM
  viability, T/C: 86.8%
Second compound 3.16 µM, first compound 0.0316 µM
  viability, T/C: 31.4%
Second compound 3.16 µM, first compound 0.1 µM
  viability, T/C: 13.7%
Second compound 10 µM, first compound 0.000316 µM
  viability, T/C: 100%
Second compound 10 µM, first compound 0.001 µM
  viability, T/C: 113%
Second compound 10 µM, first compound 0.00316 µM
  viability, T/C: 98.5%
Second compound 10 µM, first compound 0.01 µM
  viability, T/C: 110%
Second compound 10 µM, first compound 0.0316 µM
  viability, T/C: 47.7%
Second compound 10 µM, first compound 0.1 µM
  viability, T/C: 14.4%
